Test results reported in patent US20170096629A1, “FILTRATION DEVICE AND SYSTEM” (Universite Technologie de Compiegne - UTC, priority 2009, published 2017).

Experiment: diffusion coefficient of molecules through a filtration membrane, co-current filtration system, regression of analytic model
Type: physicochemical
Conditions: least-squares regression of analytic model on concentration ratio versus time
Source text: Such systems may also be used for characterizing a filtration membrane 130. For example, it is possible to evaluate a diffusion coefficient of a molecule for a given membrane 130 from a physical model and measurements of concentration of the molecule in the first chamber 110 and/or the second chamber 120 versus time. The co-current system may be used for calibrating the model and estimating the diffiusion coefficient, and the countercurrent system may be used for checking the diffusion coefficient or vice versa.
In particular, the applicant modeled the time-dependent change of the concentration in the first chamber 110, in the case when a fluid to be filtered circulates in the second chamber 120, with the following equations: • in the case of a co-current flow (like in FIG. 9): […]
and • C1(t) represents the concentration in the first chamber 110 as a function of time t, • L represents the (common) length of the first and second chambers 110, 120, • b represents the (common) width of the first and second chambers 110, 120, • Qf represents the filtration flow rate, • V1 represents the volume of the first chamber 110, • V2 represents the volume of the second chamber 120, • C1o represents the initial concentration in the first chamber 110, • C1∞ represents the equilibrium concentration in the first chamber 110, • Dm represents the diffusion coefficient of the molecule to be filtered for the membrane 130, and • δ represents the thickness of the membrane.
By means of these models, it is possible to determine the values of the diffusion coefficient Dm of the molecules tested for a given membrane 130. For this, for example it is possible to operate in the co-current mode and measure the disappearance of the molecule in the second chamber 120 (and therefore its appearance in the first chamber 110).
In FIGS. 11 and 12 the change in the concentration-over-initial-concentration-in-the-second-chamber 120 ratio is illustrated versus time for given experimental conditions, for urea (FIG. 11) and vitamin B12 (FIG. 12) respectively, with several types of membrane. Moreover, the applicant has also determined this ratio for albumin (graph not shown).
The experimental results are illustrated, for an experiment with a membrane of high porosity (of the 8F type) by icons □, Δ, and for an experiment with a membrane of low porosity (of the 1 FPH type) by icons: *, ◯. A regression of the analytic model is then made for example with a minimization by least squares, in which it is possible to obtain experimentally the diffusion coefficients in (m^2/s) listed in the following table: […]

Row | Molecule | diffusion coefficient Dm (membrane 1 FPH (low porosity)) | diffusion coefficient Dm (membrane 8F (high porosity))
1 | NC(N)=O [Urea, urea] | 2 × 10^−12 m^2/s | 2 × 10^−11 m^2/s
2 | albumin | 9 × 10^−14 m^2/s | 2 × 10^−13 m^2/s
3 | vitamin B12 | 4 × 10^−13 m^2/s | 6 × 10^−12 m^2/s
